The results in this text go back to patent US6344564B1, “Fungicidal 2-imidazolin-5-ones and 2-imidazoline-5-thiones” (priority 1992, dated 2002).

For one series, the system named is Phytophthora infestans. The series is classed as in vivo. Conditions: concentration at which 75% inhibition of the disease is observed; tomato seedlings (Marmande) sprayed 24 hours before infection with Phytophthora infestans spores; read seven days after infecting vs controls.
For series [1], the system named is Helminthosporium gramineum. The experiment in a line: In vitro test on PDA medium, Helminthosporium gramineum. In kind it is cell-based. Conditions: 120 h, dose of 20 ppm in PDA medium, 5 days at 20° C., compared with control dish, read-out: degree of inhibition of the fungus.
The subject of the next series is Pythium vexans. The experiment in a line: In vitro test on PDA medium, Pythium vexans. The note with it: Phytopythium vexans, 120 h, read-out: degree of inhibition of the fungus.
A further series has as its system Pythium rostratum. The experiment in a line: In vitro test on PDA medium, Pythium rostratum. Conditions: Globisporangium rostratum, 120 h, read-out: degree of inhibition of the fungus.
The next series has as its system Alternaria alternata. The experiment in a line: In vitro test on PDA medium, Alternaria alternata. The note with it: 120 h, read-out: degree of inhibition of the fungus.
Another series relates to Plasmopara viticola. The experiment in a line: In vivo test on Plasmopara viticola (grape downy mildew). Conditions: in Vitis vinifera, 168 h, read-out: protection.
A further series concerns Puccinia recondita. The experiment in a line: In vivo test on Puccinia recondita (brown rust of wheat). The note with it: read-out: protection.

Method for Alternaria alternata: (§1) Each test is carried out in the following way: a nutrient medium consisting of potato, glucose and gelose (PDA medium) is introduced in the supercooled state into a series of Petri dishes (100 ml per dish) after sterilization in an autoclave at 120° C.
(§2) While filling the dishes, an acetone solution of the active material is injected into the supercooled medium to obtain the desired final concentration.
(§3) After 24 hours, each dish is cultured by depositing a fragment of ground mycelium arising from a previous culture of the same fungus.
(§4) For each compound tested, the degree of inhibition of the fungus studied is thus determined for a dose of 20 ppm.
Method for Pythium rostratum: as §1, §2, §3, §4
Method for Pythium vexans: as §1, §2, §3, §4

Take `CSC1=NC2(CCCc3ccccc32)C(=O)N1Nc1ccc(Cl)cc1` (stereo not drawn): the melting point – broadly, the temperature, or range, at which the solid turns liquid – was found to be 191 °C. Still for that read-out and setting: then `CSC1=NC2(CCCc3ccccc32)C(=O)N1Nc1ccccc1C` (stereo not drawn), with 174 °C; and `CSC1=NC(c2ccccc2)C(=O)N1Nc1ccccc1` (stereo not drawn), with 190 °C; and `CSC1=NC(C)(c2cccnc2)C(=O)N1Nc1ccccc1` (stereo not drawn), with 156 °C.

In turn, `CSC1=NC(C)(Cc2ccccc2)C(=O)N1Nc1ccccc1` (stereo not drawn) returned a melting point of 166 °C. `CSC1=NC(C)(c2ccccc2)C(=O)N1Nc1ccccc1` (racemic) [501 + 502]: the “IC75 (ppm)” value with Phytophthora infestans is reported as 110 ppm. The same measure, in the same setting: then `COC1=NC(C)(c2ccccc2)C(=O)N1Nc1ccccc1` (racemic) [503 + 504], with 330 ppm; and `COC1=NC(C)(c2ccc(Br)cc2)C(=O)N1Nc1ccccc1` (racemic) [505 + 506], with more than 1000 ppm; and `CSC1=NC(C)(c2ccc(F)cc2)C(=O)N1Nc1ccccc1` (racemic) [511 + 512], with 110 ppm.

In the case of `CSC1=NC(C)(c2ccc(F)cc2)C(=O)N1Nc1cccc(F)c1` (racemic) [513 + 514], in the series with Phytophthora infestans, the “IC75 (ppm)” value is 110 ppm. For `COC1=NC(C)(c2ccc(F)cc2)C(=O)N1Nc1ccccc1` (racemic) [525 + 526], in the series with Phytophthora infestans, the “IC75 (ppm)” value was 110 ppm. The same measure, in the same setting: then `COC1=NC(C)(c2ccc(F)cc2)C(=O)N1Nc1cccc(F)c1` (racemic) [527 + 528], with 37 ppm; and `COC1=NC(C)(c2ccc(F)cc2)C(=O)N1Nc1ccccc1` (single isomer, unassigned) [Compound 525], with 37 ppm. Still for that read-out and setting: then `COC1=NC(C)(c2ccc(F)cc2)C(=O)N1Nc1ccccc1` (single isomer, unassigned) [Compound 526], with more than 1000 ppm; and `COC1=NC(C)(c2ccc(F)cc2)C(=O)N1Nc1cccc(F)c1` (single isomer, unassigned) [Compound 527], with 4-12 ppm. `CSC1=NC(C)(c2ccccc2)C(=S)N1Nc1ccccc1` (stereo not drawn) [Compound 1, 4-methyl-2-methylthio-4-phenyl-1-phenylamino-2-imidazoline-5-thione] gave a melting point of 127 °C.

For the compound `CSC1=NC(C)(c2ccccc2)C(=O)N1Nc1ccccc1` (stereo not drawn) [Compound 9, 4-methyl-2-methylthio-4-phenyl-1-phenylamino-2-imidazolin-5-one], the inhibition at 20 ppm (in series [1]; in the series with Pythium vexans; in the series with Pythium rostratum) was 80 to 100% throughout. In turn, `CSC1=NC(C)(c2ccccc2)C(=O)N1N(C)c1ccccc1` (stereo not drawn) [Compound 22, 4-methyl-1-(N-methyl-N-phenylamino)-2-methylthio-4-phenyl-2-imidazolin-5-one] yielded a melting point of 124 °C. The inhibition (as a rule, how much of the control response was suppressed) at 20 ppm in the series on Pythium vexans lay within 80 to 100%. Further, the inhibition at 20 ppm in the series on Pythium rostratum lay in the range of 80 to 100%. Moreover, the inhibition at 20 ppm in the series with Alternaria alternata lay within 80 to 100%. In turn, `CSC1=NC(C)(c2ccccc2)C(=O)N1N(C(C)=O)c1ccccc1` (stereo not drawn) [Compound 23, 4-methyl-1-(N-acetyl-N-phenylamino)-2-methylthio-4-phenyl-2-imidazolin-5-one] came in with a melting point of 132 °C. As for `CSC1=NC(C)(c2ccccc2)C(=O)N1Cc1ccccc1` (stereo not drawn) [Compound 34, 1-benzyl-4-methyl-2-methylthio-4-phenyl-2-imidazolin-5-one], the inhibition at 20 ppm in the series on Pythium vexans and with Pythium rostratum was 80 to 100% throughout.

`CCC1(c2ccccc2)N=C(SC)N(Nc2ccccc2)C1=O` (stereo not drawn) [Compound 48, 4-ethyl-2-methylthio-4-phenyl-1-phenylamino-2-imidazolin-5-one] registered a melting point of 147 °C.

In turn, `CSC1=NC2(CCCc3ccccc32)C(=O)N1Nc1ccccc1` (stereo not drawn) [Compound 97] returned a melting point of 158 °C. The same measure, in the same setting: then `CSC1=NC2(CCc3ccccc32)C(=O)N1Nc1ccccc1` (stereo not drawn) [Compound 98], with 85 °C; and `CSC1=NC2(CCCc3ccccc32)C(=O)N1Nc1ccccc1Cl` (stereo not drawn) [Compound 104], with 168 °C; and `CC1=NC(C)(c2ccccc2)C(=O)N1Nc1ccccc1` (stereo not drawn) [Compound 201, 2,4-dimethyl-4-phenyl-1-phenylamino-2-imidazolin-5-one], with 135 °C.

Regarding `COC1=NC2(CCCc3ccccc32)C(=O)N1Nc1ccccc1` (stereo not drawn) [Compound 407], the pest or weed control at 1000 µg/mL in the series with Plasmopara viticola and with Puccinia recondita was not below 75% throughout. Consider `COC1=NC2(CCc3ccccc32)C(=O)N1Nc1ccccc1` (stereo not drawn) [Compound 410], for which the pest or weed control at 1000 µg/mL in the series with Plasmopara viticola and in the series with Puccinia recondita was not below 75% throughout. Take `COC1=NC(C)(c2cccs2)C(=O)N1Nc1ccccc1` (stereo not drawn) [Compound 486]: the pest or weed control at 1000 µg/mL in the series with Plasmopara viticola and in the series on Puccinia recondita was not below 75% throughout. As to `CSC1=N[C@@](C)(c2ccccc2)C(=O)N1Nc1ccccc1` [Compound 501, (+)-(4S)-4-methyl-2-methylthio-4-phenyl-1-phenylamino-2-imidazolin-5-one], in the series with Phytophthora infestans, the “IC75 (ppm)” value is reported as 37 ppm. Still for that read-out and setting: then `CSC1=NC(C)(c2ccccc2)C(=O)N1Nc1ccccc1` (stereo not drawn) [Compound 502], with more than 1000 ppm. In turn, `COC1=N[C@@](C)(c2ccccc2)C(=O)N1Nc1ccccc1` [Compound 503, (+)-(4S)-4-methyl-2-methoxy-4-phenyl-1-phenylamino-2-imidazolin-5-one] yielded a melting point of 132 °C. For the same compound, the “IC75 (ppm)” value in the series with Phytophthora infestans turned out to be 110 ppm. The like results for `COC1=NC(C)(c2ccccc2)C(=O)N1Nc1ccccc1` (stereo not drawn) [Compound 504] were, in that order, 132 °C and more than 1000 ppm. `COC1=NC(C)(c2ccc(Br)cc2)C(=O)N1Nc1ccccc1` (stereo not drawn) [Compound 505] came in with a melting point of 202 °C. Moreover, the “IC75 (ppm)” value with Phytophthora infestans came out at 37 ppm. For the compound `COC1=NC(C)(c2ccc(Br)cc2)C(=O)N1Nc1ccccc1` (stereo not drawn) [Compound 506], the “IC75 (ppm)” value in the series with Phytophthora infestans is recorded as more than 1000 ppm.

As to `CSC1=N[C@@](C)(c2ccc(F)cc2)C(=O)N1Nc1ccccc1` [Compound 511], the “IC75 (ppm)” value in the series with Phytophthora infestans is given as 12-37 ppm. Still for that read-out and setting: then `CSC1=N[C@@](C)(c2ccc(F)cc2)C(=O)N1Nc1cccc(F)c1` [Compound 513], with 37 ppm.
